Here are results for 26 compounds from ChEMBL document CHEMBL4431295 (Medchemcomm, 2016).

For one test, the system named is MGC-803. Put plainly: Antiproliferative activity against human MGC803 cells after 72 hrs by MTT assay. Particulars: MGC-803, 72 h. Format: functional, cell-based. In general terms: Tetrazolium assays rely on reduction of a dye to a coloured formazan, in cell work by metabolically active cells.
The next test has as its system HepG2. The experiment in a line: Antiproliferative activity against human HepG2 cells after 72 hrs by MTT assay. Format: functional, cell-based. The following applies: HepG2, 72 h.
In another test the test system is SK-N-SH. The experiment in a line: Antiproliferative activity against human SK-N-SH cells after 72 hrs by MTT assay. Format: functional, cell-based.
Another test concerns GES1. The experiment in a line: Cytotoxicity against human GES-1 cells assessed as cell growth inhibition after 72 hrs by MTT assay. The test is classed as cell-based. Particulars: GES1, 72 h.

For orientation: IC50 means the point on the concentration scale where inhibition reaches its midpoint.

Turning to `COc1cc(OC)c(/C=C/C(=O)c2ccc(NCc3cn(Cc4ccccc4)nn3)cc2)c(OC)c1`, the half-maximal inhibitory concentration (IC50) came out at 6.26 µM in the test on MGC-803, 10.4 µM in the test with HepG2 and 6.26 µM in the test with SK-N-SH.
As for `O=C(/C=C/c1cccnc1)c1ccc(NCc2cn(Cc3ccc(C(F)(F)F)cc3)nn2)cc1`, the values for the IC50 in the test with MGC-803, with HepG2 and in the test on SK-N-SH were 7.19 µM, 9.24 µM and 7.26 µM, respectively.
Consider `O=C(/C=C/c1cccnc1)c1ccc(NCc2cn(Cc3ccc(Cl)cc3)nn2)cc1`, for which the values for the 50% inhibitory concentration (IC50) with MGC-803, in the test with HepG2 and in the test with SK-N-SH were 7.03 µM, 9.32 µM and 4.36 µM, respectively.
Take `O=C(/C=C/c1cccnc1)c1ccc(NCc2cn(Cc3ccccc3)nn2)cc1`: the 50% inhibitory concentration (IC50) in the test with MGC-803 worked out at 3.43 µM; in the test on HepG2, 4.37 µM; with SK-N-SH, 5.15 µM.
In the case of `O=C(/C=C/c1cccs1)c1ccc(NCc2cn(Cc3ccc(Cl)cc3)nn2)cc1`, the IC50 stood at 29.6 µM with MGC-803, 39.2 µM in the test on HepG2 and 30.9 µM in the test on SK-N-SH.
For the compound `O=C(/C=C/c1cccnc1)c1ccc(NCc2cn(Cc3ccccc3C(F)(F)F)nn2)cc1`, the IC50 in the test with MGC-803 worked out at 3.15 µM; with HepG2, 6.92 µM; in the test on SK-N-SH, 7.29 µM; in the test with GES1 it was 54.7 µM.
On to `O=C(/C=C/c1cc(F)cc(F)c1)c1ccc(NCc2cn(Cc3ccccc3)nn2)cc1`, for which the figures for the IC50 in the test with MGC-803, with HepG2 and in the test with SK-N-SH were 23.5 µM, > 64 µM and 27.3 µM, respectively.
For `O=C(/C=C/c1ccc(Cl)cc1)c1ccc(OCc2cn(Cc3ccccc3)nn2)cc1` the same measures were 43.2 µM, 21 µM and 17.5 µM.
`COc1ccc(/C=C/C(=O)c2ccc(OCc3cn(Cc4ccccc4)nn3)cc2)c(OC)c1OC`: the IC50 in the test on MGC-803 came to 37.2 µM; with HepG2 it was 9.35 µM; in the test on SK-N-SH, 14.5 µM.
Taken in the same sequence, the figures for `O=C(/C=C/c1ccccc1F)c1ccc(OCc2cn(Cc3ccccc3)nn2)cc1` were 50.6 µM, 18.4 µM and 28.6 µM.
Consider `COc1ccccc1/C=C/C(=O)c1ccc(OCc2cn(Cc3ccccc3)nn2)cc1`, for which the 50% inhibitory concentration (IC50) was > 64 µM with MGC-803, 24.8 µM in the test on HepG2 and 26.7 µM in the test with SK-N-SH.
For `O=C(/C=C/c1cccc(Cl)c1)c1ccc(OCc2cn(Cc3ccccc3)nn2)cc1` the same measures were > 64 µM, 24 µM and 19.6 µM.
In the case of `O=C(/C=C/c1ccc([N+](=O)[O-])cc1)c1ccc(OCc2cn(Cc3ccccc3)nn2)cc1`, the IC50 was determined as 29.8 µM in the test on MGC-803, 24.4 µM in the test on HepG2 and 11.6 µM in the test with SK-N-SH.
Turning to `O=C(/C=C/c1ccco1)c1ccc(NCc2cn(Cc3ccccc3)nn2)cc1`, the IC50 in the test with MGC-803 amounted to 37.3 µM; in the test on HepG2, 42.5 µM; with SK-N-SH, 39.2 µM.
Taken in the same sequence, the figures for `Nc1ccc(C(=O)/C=C/c2ccco2)cc1` were > 64 µM, > 64 µM and 48.9 µM.
For `O=C(/C=C/c1ccc(F)cc1)c1ccc(NCc2cn(Cc3ccccc3)nn2)cc1` the same measures were 40.2 µM, 38.8 µM and 42.4 µM.
Take `Nc1ccc(C(=O)/C=C/c2ccc(Cl)cc2)cc1`: the concentration for half-maximal inhibition (IC50) was found to be 61.2 µM in the test on MGC-803, 55.6 µM in the test on HepG2 and 58.2 µM in the test on SK-N-SH.
With `CN1CCN(c2ccc(/C=C/C(=O)c3ccc(OCc4cn(Cc5ccccc5)nn4)cc3)cc2F)CC1`, the half-inhibitory concentration (IC50) amounted to 11.6 µM in the test on MGC-803, 5.47 µM in the test on HepG2 and 6.44 µM with SK-N-SH.
For `O=C(/C=C/c1cc(Cl)cc(Cl)c1)c1ccc(NCc2cn(Cc3ccccc3)nn2)cc1` the same measures were 16.8 µM, 23.4 µM and 20.5 µM.
Turning to `O=C(/C=C/c1ccc(Cl)cc1Cl)c1ccc(OCc2cn(Cc3ccccc3)nn2)cc1`, the IC50 in the test with MGC-803 was > 64 µM; in the test with HepG2, 27.9 µM; with SK-N-SH it was 36.4 µM.
Take `O=C(/C=C/c1ccncc1)c1ccc(NCc2cn(Cc3ccccc3)nn2)cc1`: the values for the IC50 in the test with MGC-803, in the test on HepG2 and in the test with SK-N-SH were 17.1 µM, 7.02 µM and 5.23 µM, respectively.
Taken in the same sequence, the figures for `COc1cccc(Cn2cc(CNc3ccc(C(=O)/C=C/c4ccc(Cl)cc4)cc3)nn2)c1` were 38.6 µM, 34.7 µM and 21.2 µM.
In the case of `O=C(/C=C/c1ccncc1)c1ccc(OCc2cn(Cc3ccccc3)nn2)cc1`, the IC50 in the test on MGC-803 stood at 26.1 µM; with HepG2 it was 11.4 µM; in the test on SK-N-SH it was 7.43 µM.
For `O=C(/C=C/c1cccnc1)c1ccc(OCc2cn(Cc3ccccc3)nn2)cc1` the same measures were 10.2 µM, 5.22 µM and 6.37 µM.
Regarding `Nc1ccc(C(=O)/C=C/c2cccs2)cc1`, the half-inhibitory concentration (IC50) with MGC-803, in the test with HepG2 and in the test with SK-N-SH was > 64 µM throughout.
`O=c1[nH]cc(F)c(=O)[nH]1` [FLUOROURACIL]: the IC50 was found to be 7.22 µM with MGC-803, 10.3 µM in the test with HepG2, 10.3 µM with SK-N-SH and 7.22 µM in the test with GES1.
